Results reported in ChEMBL document CHEMBL1201862, “PubChem BioAssay data set” (2004).
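Results reflect a 48-hour exposure of cells in 96-well plates to compound at five concentrations. The concentration for 50% growth inhibition is given as GI50.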 Calls of active or inactive are those of the source. No stated cut-off is given here; in the data, active = GI50 up to about 1.1 µM and inactive = higher.

How the values were obtained:
Test in all cases: growth of human tumour cells (NCI), 48 h
[1] = system: OVCAR-4
[2] = system: EKVX
[3] = system: M14
[4] = system: K562
[5] = system: SF-539
[6] = system: HCT-15
[7] = system: LOX IMVI
[8] = system: Malme-3M
[9] = system: SNB-19
[10] = system: CCRF-CEM
[11] = system: SK-MEL-28
[12] = system: RXF 393
[13] = system: OVCAR-3
[14] = system: RPMI-8226
[15] = system: SF-295
[16] = system: DU-145
[17] = system: MDA-N
[18] = system: HCT-116

Row | Structure (SMILES) | GI50 [1] | GI50 [2] | GI50 [3] | GI50 [4] | GI50 [5] | GI50 [6] [µM] | GI50 [7] | GI50 [8] | GI50 [9] | GI50 [10] | GI50 [11] | GI50 [12] | GI50 [13] | GI50 [14] | GI50 [15] | GI50 [16] | GI50 [17] | GI50 [18]
1 | COC(=O)CCC1CCc2c(OC)ccc(OC)c2C1=O (stereo unspecified) | > 100 µM (inactive) | > 100 µM (inactive) | > 100 µM (inactive) | > 100 µM (inactive) | > 100 µM (inactive) | > 100 | > 100 µM (inactive) | > 100 µM (inactive) | > 100 µM (inactive) | > 100 µM (inactive) | > 100 µM (inactive) | > 100 µM (inactive) | > 100 µM (inactive) | > 100 µM (inactive) | > 100 µM (inactive) |  |  | 
2 | OC(c1ccsc1)c1cc2ccccc2s1 (stereo unspecified) | > 10 µM (inactive) | > 10 µM (inactive) | > 10 µM (inactive) | > 10 µM (inactive) | > 10 µM (inactive) | > 10 | > 10 µM (inactive) |  | > 10 µM (inactive) | > 10 µM (inactive) | > 10 µM (inactive) | > 10 µM (inactive) | > 10 µM (inactive) | > 10 µM (inactive) | > 10 µM (inactive) | > 10 µM (inactive) | > 10 µM (inactive) | > 10 µM (inactive)
3 | CN(C)c1ccc(-c2[nH]c(=O)c3ccccc3[n+]2C)cc1 | 60.1 µM (inactive) | 88.9 µM (inactive) | 41.3 µM (inactive) | 58.6 µM (inactive) | > 100 µM (inactive) | > 100 |  | 47.6 µM (inactive) | > 100 µM (inactive) | > 100 µM (inactive) | > 100 µM (inactive) | > 100 µM (inactive) |  | 63.2 µM (inactive) | > 100 µM (inactive) | > 100 µM (inactive) |  | 93.8 µM (inactive)
4 | CN1CCCC2[C@@H]3CCC4=C(O)C(=O)CC[C@]4(C)C3CC[C@@]21C (stereo partly specified) | > 100 µM (inactive) | > 100 µM (inactive) | > 100 µM (inactive) | > 100 µM (inactive) | > 100 µM (inactive) | > 100 | > 100 µM (inactive) | > 100 µM (inactive) | > 100 µM (inactive) | > 100 µM (inactive) | > 100 µM (inactive) | > 100 µM (inactive) | > 100 µM (inactive) | > 100 µM (inactive) | > 100 µM (inactive) |  |  | > 100 µM (inactive)
5 | CCOC(=O)N1CCC2C(=C(C)C(C)C3=C2C(=O)c2ccccc2C3=O)C1 (stereo unspecified) | > 10 µM (inactive) | > 10 µM (inactive) | 4.73 µM (inactive) | 3.08 µM (inactive) |  | 3.88 | 3.61 µM (inactive) | 1.82 µM (inactive) |  | 9.44 µM (inactive) | 5.05 µM (inactive) | > 10 µM (inactive) |  | 3.79 µM (inactive) | 3.82 µM (inactive) | 2.45 µM (inactive) | 3.33 µM (inactive) | 
6 | O=S(=O)(O)C1=C2Sc3ccccc3N=C2c2ccccc2C1 | 16.8 µM (inactive) | 13.8 µM (inactive) | 12.7 µM (inactive) | 10.5 µM (inactive) | 11.9 µM (inactive) | 13.6 | 12.4 µM (inactive) | 15.8 µM (inactive) | 22.4 µM (inactive) | 3.43 µM (inactive) | 17.3 µM (inactive) | 19.5 µM (inactive) | 17.5 µM (inactive) | 7.48 µM (inactive) | 13.8 µM (inactive) |  |  | 15.2 µM (inactive)
7 | Cc1[nH]n(-c2nc3c(c(=O)[nH]2)CCC3)c(=O)c1CCO | > 100 µM (inactive) | > 100 µM (inactive) | > 100 µM (inactive) | > 100 µM (inactive) | > 100 µM (inactive) | > 100 | > 100 µM (inactive) | > 100 µM (inactive) | > 100 µM (inactive) | > 100 µM (inactive) | > 100 µM (inactive) | > 100 µM (inactive) | > 100 µM (inactive) | > 100 µM (inactive) | > 100 µM (inactive) | > 100 µM (inactive) | > 100 µM (inactive) | > 100 µM (inactive)
